Test results: US11117900B2 (Vertex Pharmaceuticals Incorporated, priority 2012, dated 2021)

What follows are compounds tested on HCT116 colorectal cancer cells (assay: Cisplatin sensitization assay (96 h MTS cell viability)). Conditions: Cisplatin sensitization value.
Format: cell-based
Procedure, shortened: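 HCT116 cells were dosed simultaneously with compound and cisplatin as a full matrix of 2-fold serial dilutions from 10 μM top final concentration. Incubation was 96 h at 37° C., 5% CO2, followed by 1 h with MTS reagent for the viability read-out. Sensitization values were binned into +++, ++ and + categories.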
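Also: compound concentration needed to lower the IC50 of Cisplatin alone by a set fold.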

Row | Compound | Cisplatin Sensitization Assay
1 | CN1CC[C@H](Oc2ccncc2NC(=O)c2c(N)nn3cc(Cl)cnc23)C1 [I-O-69, (S)-2-amino-6-chloro-N-(4-((1-methylpyrrolidin-3-yl)oxy)pyridin-3-yl)pyrazolo[1,5-a]pyrimidine-3-carboxamide] | ++ (Compounds with a Cisplatin sensitization value >0.02 μM but <0.2 μM are marked with “++.”)
2 | N#CCc1cnc2c(C(=O)Nc3cnccc3OC3CCCCC3)c(N)nn2c1 [I-O-39, 2-amino-6-(cyanomethyl)-N-(4-(cyclohexyloxy)pyridin-3-yl)pyrazolo[1,5-a]pyrimidine-3-carboxamide] | +++ (Compounds with a Cisplatin sensitization value of <0.02 μM are marked with “+++.”)
3 | CN(C)C(=O)C1CCN(c2ccncc2NC(=O)c2c(N)nn3cc(F)cnc23)CC1 [I-G-2, 2-amino-N-(4-(4-(dimethylcarbamoyl)piperidin-1-yl)pyridin-3-yl)-6-fluoropyrazolo[1,5-a]pyrimidine-3-carboxamide] | +++ (Compounds with a Cisplatin sensitization value of <0.02 μM are marked with “+++.”)
4 | N#CCc1cnc2c(C(=O)Nc3cnccc3OC3CCNCC3)c(N)nn2c1 [I-O-84, 2-amino-6-(cyanomethyl)-N-(4-(piperidin-4-yloxy)pyridin-3-yl)pyrazolo[1,5-a]pyrimidine-3-carboxamide] | ++ (Compounds with a Cisplatin sensitization value >0.02 μM but <0.2 μM are marked with “++.”)
5 | CNC1CCN(c2ccncc2NC(=O)c2c(N)nn3cc(Cl)cnc23)CC1 [I-N-87, 2-amino-6-chloro-N-(4-(4-(methylamino)piperidin-1-yl)pyridin-3-yl)pyrazolo[1,5-a]pyrimidine-3-carboxamide] | ++ (Compounds with a Cisplatin sensitization value >0.02 μM but <0.2 μM are marked with “++.”)
6 | CN1CC2(CCN(c3ccncc3NC(=O)c3c(N)nn4cc(F)cnc34)CC2)CC1=O [I-N-236, 2-amino-6-fluoro-N-(4-(2-methyl-3-oxo-2,8-diazaspiro[4.5]decan-8-yl)pyridin-3-yl)pyrazolo[1,5-a]pyrimidine-3-carboxamide] | +++ (Compounds with a Cisplatin sensitization value of <0.02 μM are marked with “+++.”)
7 | CN1CCC(S(=O)(=O)N2CCN(c3ccncc3NC(=O)c3c(N)nn4cc(F)cnc34)CC2)CC1 [I-N-188, 2-amino-6-fluoro-N-(4-(4-((1-methylpiperidin-4-yl)sulfonyl)piperazin-1-yl)pyridin-3-yl)pyrazolo[1,5-a]pyrimidine-3-carboxamide] | +++ (Compounds with a Cisplatin sensitization value of <0.02 μM are marked with “+++.”)
8 | Nc1nn2cc(F)cnc2c1C(=O)Nc1cncc(F)c1C1CCN(C2COC2)CC1 [I-C-13, 2-amino-6-fluoro-N-(5-fluoro-4-(1-(oxetan-3-yl)piperidin-4-yl)pyridin-3-yl)pyrazolo[1,5-a]pyrimidine-3-carboxamide] | ++ (Compounds with a Cisplatin sensitization value >0.02 μM but <0.2 μM are marked with “++.”)
9 | N#CCc1cnc2c(C(=O)Nc3cnccc3O[C@@H]3CCOC3)c(N)nn2c1 [I-O-31, (R)-2-amino-6-(cyanomethyl)-N-(4-((tetrahydrofuran-3-yl)oxy)pyridin-3-yl)pyrazolo[1,5-a]pyrimidine-3-carboxamide] | +++ (Compounds with a Cisplatin sensitization value of <0.02 μM are marked with “+++.”)
10 | Nc1nn2cc(F)cnc2c1C(=O)Nc1cncc(F)c1N1CCC(C(=O)N2CC(N3CCCC3)C2)CC1 [I-G-43, 2-amino-6-fluoro-N-(5-fluoro-4-(4-(3-(pyrrolidin-1-yl)azetidine-1-carbonyl)piperidin-1-yl)pyridin-3-yl)pyrazolo[1,5-a]pyrimidine-3-carboxamide] | +++ (Compounds with a Cisplatin sensitization value of <0.02 μM are marked with “+++.”)
11 | Nc1nn2cc(F)cnc2c1C(=O)Nc1cnccc1-c1cccnc1F [I-C-35, 2-amino-6-fluoro-N-(2-fluoro-[3,4′-bipyridin]-3′-yl)pyrazolo[1,5-a]pyrimidine-3-carboxamide] | +++ (Compounds with a Cisplatin sensitization value of <0.02 μM are marked with “+++.”)
12 | CO[C@H]1CCN(C(=O)C2CCN(c3ccncc3NC(=O)c3c(N)nn4cc(F)cnc34)CC2)C1 [I-G-94, (S)-2-amino-6-fluoro-N-(4-(4-(3-methoxypyrrolidine-1-carbonyl)piperidin-1-yl)pyridin-3-yl)pyrazolo[1,5-a]pyrimidine-3-carboxamide] | +++ (Compounds with a Cisplatin sensitization value of <0.02 μM are marked with “+++.”)
13 | Nc1nn2cc(F)cnc2c1C(=O)Nc1cnccc1C1CCN(C2COC2)CC1 [I-C-10, 2-amino-6-fluoro-N-(4-(1-(oxetan-3-yl)piperidin-4-yl)pyridin-3-yl)pyrazolo[1,5-a]pyrimidine-3-carboxamide] | +++ (Compounds with a Cisplatin sensitization value of <0.02 μM are marked with “+++.”)
14 | Nc1nn2cc(F)cnc2c1C(=O)Nc1cnccc1N1CCN([C@H]2CCOC2)CC1 [I-N-12, (S)-2-amino-6-fluoro-N-(4-(4-(tetrahydrofuran-3-yl)piperazin-1-yl)pyridin-3-yl)pyrazolo[1,5-a]pyrimidine-3-carboxamide] | +++ (Compounds with a Cisplatin sensitization value of <0.02 μM are marked with “+++.”)
15 | CC(C)(C)Oc1ccncc1NC(=O)c1c(N)nn2cc(F)cnc12 [I-O-88, 2-amino-N-(4-(tert-butoxy)pyridin-3-yl)-6-fluoropyrazolo[1,5-a]pyrimidine-3-carboxamide] | +++ (Compounds with a Cisplatin sensitization value of <0.02 μM are marked with “+++.”)
16 | CN(C)C(=O)C1CCCN(c2ccncc2NC(=O)c2c(N)nn3cc(F)cnc23)C1 (stereo not shown) [I-N-290, 2-amino-N-(4-(3-(dimethylcarbamoyl)piperidin-1-yl)pyridin-3-yl)-6-fluoropyrazolo[1,5-a]pyrimidine-3-carboxamide] | ++ (Compounds with a Cisplatin sensitization value >0.02 μM but <0.2 μM are marked with “++.”)
17 | COCCn1cncc1-c1ccncc1NC(=O)c1c(N)nn2cc(F)cnc12 [I-C-83, 2-amino-6-fluoro-N-(4-(1-(2-methoxyethyl)-1H-imidazol-5-yl)pyridin-3-yl)pyrazolo[1,5-a]pyrimidine-3-carboxamide] | ++ (Compounds with a Cisplatin sensitization value >0.02 μM but <0.2 μM are marked with “++.”)
18 | CN(C)C1CN(C2CCN(c3ccncc3NC(=O)c3c(N)nn4cc(Cl)cnc34)CC2)C1 [I-N-94, 2-amino-6-chloro-N-(4-(4-(3-(dimethylamino)azetidin-1-yl)piperidin-1-yl)pyridin-3-yl)pyrazolo[1,5-a]pyrimidine-3-carboxamide] | +++ (Compounds with a Cisplatin sensitization value of <0.02 μM are marked with “+++.”)
19 | CN1CCC(NC(=O)C2CCN(c3c(F)cncc3NC(=O)c3c(N)nn4cc(F)cnc34)CC2)CC1 [I-G-20, 2-amino-6-fluoro-N-(5-fluoro-4-(4-((1-methylpiperidin-4-yl)carbamoyl)piperidin-1-yl)pyridin-3-yl)pyrazolo[1,5-a]pyrimidine-3-carboxamide] | + (Compounds with a Cisplatin sensitization value >0.2 μM but <5 μM are marked with “+.”)
